Where a name gives a salt, the structure may show the parent alone.
Each compound was assayed against T1, human SPNS2 (Homo sapiens, UniProt Q8IVW8) (assay: S1P transporter assay: growth of S. cerevisiae strain with forced expression of a mammalian SphK and human SPNS2). Conditions: in vitro inhibition of SPNS2; growth of S. cerevisiae strain expressing mammalian SphK and human SPNS2; compounds as their pharmaceutical salts.
T1 construct: expressed in transfected cells; host or cells: Saccharomyces cerevisiae strain with forced expression of a mammalian SphK and human SPNS2
T1 sequence (Q8IVW8 1-549): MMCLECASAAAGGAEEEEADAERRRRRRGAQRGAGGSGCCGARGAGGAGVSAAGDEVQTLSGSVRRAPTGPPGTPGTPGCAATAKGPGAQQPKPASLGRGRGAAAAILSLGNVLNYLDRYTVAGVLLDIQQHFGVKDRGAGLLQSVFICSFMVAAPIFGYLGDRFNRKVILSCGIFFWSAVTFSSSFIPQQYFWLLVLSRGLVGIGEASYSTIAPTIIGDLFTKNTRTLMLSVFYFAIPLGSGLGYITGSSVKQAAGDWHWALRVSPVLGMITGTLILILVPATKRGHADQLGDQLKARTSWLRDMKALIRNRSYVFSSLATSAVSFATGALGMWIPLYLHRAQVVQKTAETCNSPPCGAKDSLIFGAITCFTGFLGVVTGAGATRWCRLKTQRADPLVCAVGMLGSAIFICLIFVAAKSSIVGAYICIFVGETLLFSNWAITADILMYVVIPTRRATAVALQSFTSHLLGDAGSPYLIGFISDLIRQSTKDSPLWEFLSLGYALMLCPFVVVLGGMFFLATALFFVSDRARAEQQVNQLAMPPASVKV
Type: cell-based
From the text: Transporter assays are vectorial and, therefore, require measurement of the transported analyte in different compartments. The assay of S1P transporters is problematic because S1P is exported, but not imported, by SPNS2, which obviates measuring uptake of mass- or radio-labeled S1P into transporter-expressing cells.
To assay for SPNS2 inhibitor hits, we took advantage of the growth inhibitory effects of excessive levels of phosphorylated Long Chain Base (phospho-LCB) levels on the budding yeast, S. cerevisiae (Kharel Y, et al. Saccharomyces cerevisiae as a platform for assessing sphingolipid lipid kinase inhibitors. PLoS One 13, e0192179 (2018) PMC5908134). Yeast lack the desaturase that converts dihydroceramide to ceramide and, therefore, have neither sphingosine nor S1P. Rather, yeast have the reduced form, dihydrosphingosine, and the 4-hydroxyl analog, phytosphingosine and their respective phosphates. Like all eukaryotes, the yeast synthesizes (via LCB kinases (SphKs)) and degrades (via phospho-LCB lyase and phosphatase) phospho-LCBs, (dhS1P, phytoS1P). Yeast lack phospho-LCB transporters such as SPNS2, which are found only in vertebrates. To assess inhibition of SPNS2 in vitro, we used a strain of S. cerevisiae wherein expression of a mammalian SphK and human SPNS2 were forced. SPNS2 inhibitors decrease the growth of this strain. Table 2 below presents in vitro inhibition data against SPNS2 for exemplary compounds, presented here as their pharmaceutical salts, of the disclosure (A≤2 μM, B>2 μM).

IC50, > 2000 nM:
CCCCCCCCCCCc1ccc(-c2noc([C@@H]3CCCN(C(=N)N)C3)n2)cc1C(F)(F)F [Compound 30f, (R)-3-(3-(3-(trifluoromethyl)-4-undecylphenyl)-1,2,4-oxadiazol-5-yl)piperidine-1-carboximidamide hydrochloride]
CCCCCCCCCCc1ccc(-c2noc([C@@H]3CCN(C(=N)N)C3)n2)cc1 [Compound 7g, (R)-amino(3-(3-(4-decylphenyl)-1,2,4-oxadiazol-5-yl)pyrrolidin-1-yl)methaniminium chloride]
CCCCCCCCCCc1ccc(-c2noc([C@@H]3CCNC3)n2)cc1 [Compound 5g, (R)-3-(3-(4-decylphenyl)-1,2,4-oxadiazol-5-yl)pyrrolidin-1-ium 2,2,2-trifluoroacetate]
CCCCCCCCCc1ccc(-c2noc([C@@H]3CCCNC3)n2)cc1C(F)(F)F [Compound 28d, (R)-3-(4-nonyl-3-(trifluoromethyl)phenyl)-5-(piperidin-3-yl)-1,2,4-oxadiazole hydrochloride]
N=C(N)N1CCC[C@@H](c2nc(-c3ccc(Nc4ccc(OC(F)(F)F)c(F)c4)nc3)no2)C1 [Compound 15c, (R)-3-(3-(6-((3-fluoro-4-(trifluoromethoxy)phenyl)amino)pyridin-3-yl)-1,2,4-oxadiazol-5-yl)piperidine-1-carboximidamide hydrochloride]
CCCCCCCCOc1ccc(-c2noc([C@@H]3CCCN(C(=N)N)C3)n2)cc1C(F)(F)F [Compound 23d, (R)-3-(3-(4-(octyloxy)-3-(trifluoromethyl)phenyl)-1,2,4-oxadiazol-5-yl)piperidine-1-carboximidamide hydrochloride]
CCCCCCCCc1ccc(-c2noc(C3CN(C(=N)N)C3)n2)cc1 [Compound 7d, 3-(3-(4-octylphenyl)-1,2,4-oxadiazol-5-yl)azetidine-1-carboximidamide hydrochloride]
c1cc(N2CCCCC2)ncc1-c1noc([C@@H]2CCNC2)n1 [Compound 13a, (R)-3-(6-(piperidin-1-yl)pyridin-3-yl)-5-(pyrrolidin-3-yl)-1,2,4-oxadiazole hydrochloride]
CCCCCO/N=C(\C)c1ccc(-c2noc([C@@H]3CCNC3)n2)cc1 [Compound 38l, (R)-1-(4-(5-(pyrrolidin-3-yl)-1,2,4-oxadiazol-3-yl)phenyl)ethan-1-one O-pentyl oxime hydrochloride]
CCCCCCCCCCc1cccc(-c2noc([C@@H]3CCN(C(=N)N)C3)n2)c1 [Compound 7t, (R)-3-(3-(3-decylphenyl)-1,2,4-oxadiazol-5-yl)pyrrolidine-1-carboximidamide hydrochloride]
CC(C)(C)c1cccc(Nc2ccc(-c3noc([C@@H]4CCN(C(=N)N)C4)n3)cn2)c1 [Compound 15g, (R)-3-(3-(6-((3-(tert-butyl)phenyl)amino)pyridin-3-yl)-1,2,4-oxadiazol-5-yl)pyrrolidine-1-carboximidamide hydrochloride]
N=C(N)N1CC(c2nc(-c3ccc(OCCCc4ccccc4)c(C(F)(F)F)c3)no2)C1 [Compound 23i, 3-(3-(4-(3-phenylpropoxy)-3-(trifluoromethyl)phenyl)-1,2,4-oxadiazol-5-yl)azetidine-1-carboximidamide hydrochloride]
CCCCCCCCCCCc1ccc(-c2noc([C@@H]3CCCNC3)n2)cc1C(F)(F)F [Compound 28f, (R)-5-(piperidin-3-yl)-3-(3-(trifluoromethyl)-4-undecylphenyl)-1,2,4-oxadiazole hydrochloride]
CCCCCCCCCCc1ccc(-c2noc(C[C@@H]3CCN(C(=N)N)C3)n2)cc1C(F)(F)F [Compound 30g, (S)-3-((3-(4-decyl-3-(trifluoromethyl)phenyl)-1,2,4-oxadiazol-5-yl)methyl)pyrrolidine-1-carboximidamide hydrochloride]
CCCCCCCCCCc1ccc(-c2noc([C@H]3CCNC3)n2)cc1 [Compound 5e, (S)-3-(3-(4-decylphenyl)-1,2,4-oxadiazol-5-yl)pyrrolidin-1-ium 2,2,2-trifluoroacetate]
C/C(=N\OCc1ccccc1)c1ccc(-c2noc([C@@H]3CCNC3)n2)cc1 [Compound 38g, (R)-1-(4-(5-(pyrrolidin-3-yl)-1,2,4-oxadiazol-3-yl)phenyl)ethan-1-one O-benzyl oxime hydrochloride]
CCCCCCCCCCCc1ccc(-c2noc(C3CN(C(=N)N)C3)n2)cc1C(F)(F)F [Compound 30c, 3-(3-(3-(trifluoromethyl)-4-undecylphenyl)-1,2,4-oxadiazol-5-yl)azetidine-1-carboximidamide hydrochloride]
C/C(=N\OCc1ccc(-c2ccccc2)cc1)c1ccc(-c2noc([C@@H]3CCNC3)n2)cc1 [Compound 38d, (R)-1-(4-(5-(pyrrolidin-3-yl)-1,2,4-oxadiazol-3-yl)phenyl)ethan-1-one O-([1,1′-biphenyl]-4-ylmethyl) oxime hydrochloride]
CCCCCCCO/N=C(\C)c1ccc(-c2noc([C@@H]3CCNC3)n2)cc1 [Compound 38i, hydrochloride]
Fc1cc(Nc2ccc(-c3noc([C@@H]4CCCNC4)n3)cn2)ccc1OC(F)(F)F [Compound 13c, (R)—N-(3-fluoro-4-(trifluoromethoxy)phenyl)-5-(5-(piperidin-3-yl)-1,2,4-oxadiazol-3-yl)pyridin-2-amine hydrochloride]

IC50, ≤ 2000 nM:
CCCCCCCCCCc1ccc(Nc2ccc(-c3noc([C@@H]4CCN(C(=N)N)C4)n3)cn2)cc1 [Compound 15h, (R)-3-(3-(6-((4-decylphenyl)amino)pyridin-3-yl)-1,2,4-oxadiazol-5-yl)pyrrolidine-1-carboximidamide hydrochloride]
CCCCCCCO/N=C(\C)c1ccc(-c2noc([C@@H]3CCN(C(=N)N)C3)n2)cc1 [Compound 40i, (R)-3-(3-(4-(1-((heptyloxy)imino)ethyl)phenyl)-1,2,4-oxadiazol-5-yl)pyrrolidine-1-carboximidamide hydrochloride]
CCCCCCCCCc1ccc(-c2noc([C@@H]3CCN(C(=N)N)C3)n2)cc1 [Compound 7xb, (R)-3-(3-(4-nonylphenyl)-1,2,4-oxadiazol-5-yl)pyrrolidine-1-carboximidamide hydrochloride]
CCCCCCCCCOc1ccc(-c2noc([C@@H]3CCCNC3)n2)cc1C(F)(F)F [Compound 12e]
C/C(=N\OCc1ccc(-c2ccccc2)cc1)c1ccc(-c2noc([C@@H]3CCN(C(=N)N)C3)n2)cc1 [Compound 40d, (R)-3-(3-(4-(1-(([1,1′-biphenyl]-4-ylmethoxy)imino)ethyl)phenyl)-1,2,4-oxadiazol-5-yl)pyrrolidine-1-carboximidamide hydrochloride]
CCCCCCCCCc1ccc(-c2noc([C@@H]3CCCN(C(=N)N)C3)n2)cc1 [Compound 7yb, (R)-3-(3-(4-nonylphenyl)-1,2,4-oxadiazol-5-yl)piperidine-1-carboximidamide hydrochloride]
C/C(=N\OCc1cccc(-c2ccccc2)c1)c1ccc(-c2noc([C@@H]3CCN(C(=N)N)C3)n2)cc1 [Compound 40e, (R)-3-(3-(4-(1-(([1,1′-biphenyl]-3-ylmethoxy)imino)ethyl)phenyl)-1,2,4-oxadiazol-5-yl)pyrrolidine-1-carboximidamide hydrochloride]
CCCCCCCCCCCc1ccc(-c2noc([C@@H]3CCN(C(=N)N)C3)n2)cc1 [Compound 7xa, (R)-3-(3-(4-undecylphenyl)-1,2,4-oxadiazol-5-yl)pyrrolidine-1-carboximidamide hydrochloride]
CCCCCCCCCCc1ccc(-c2noc(C3CN(C(=N)N)C3)n2)cc1 [Compound 7b, 3-(3-(4-decylphenyl)-1,2,4-oxadiazol-5-yl)azetidine-1-carboximidamide hydrochloride]
CCCCCCCCCCc1ccc(-c2noc([C@@H]3CCCN(C(=N)N)C3)n2)cc1C(F)(F)F [Compound 30e, (R)-3-(3-(4-decyl-3-(trifluoromethyl)phenyl)-1,2,4-oxadiazol-5-yl)piperidine-1-carboximidamide hydrochloride]

Reference: patent publication US12590083B2, “Inhibitors of spinster homolog 2 (SPNS2) for use in therapy” (University of Virginia Patent Foundation, priority 2019, dated 2026)
